Laboratory results reported in paper PMC4933591 (Bioconjugate chemistry, 2015).
Non-standard residues stand in square brackets, D forms with d. Residues, ends and D or L forms follow the SMILES beside them. Aha = [N-]=[N+]=NCC[C@H](N)C(=O)O

Experiments:
GLP-1R = target: T1, GLP-1R (Mus musculus, UniProt O35659); experiment: In vitro receptor binding assay using NIT-1 cells
T1 sequence (O35659 22-463): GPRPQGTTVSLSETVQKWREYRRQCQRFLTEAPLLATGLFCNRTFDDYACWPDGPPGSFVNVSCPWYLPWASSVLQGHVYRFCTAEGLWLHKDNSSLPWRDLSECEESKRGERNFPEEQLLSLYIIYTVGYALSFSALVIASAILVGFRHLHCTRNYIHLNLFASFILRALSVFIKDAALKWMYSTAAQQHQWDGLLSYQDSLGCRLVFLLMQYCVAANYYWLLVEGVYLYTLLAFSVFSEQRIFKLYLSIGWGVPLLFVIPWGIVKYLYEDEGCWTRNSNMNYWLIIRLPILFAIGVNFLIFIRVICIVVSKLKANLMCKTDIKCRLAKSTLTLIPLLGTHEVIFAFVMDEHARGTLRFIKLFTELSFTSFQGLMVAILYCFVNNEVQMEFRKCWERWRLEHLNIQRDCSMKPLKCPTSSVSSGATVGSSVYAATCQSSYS

[1] = Aggregation observed during experiments; assay type: physicochemical; conditions: lower concentrations during experiments

Compound: CC[C@H](C)[C@H](NC(=O)[C@H](Cc1ccccc1)NC(=O)[C@H](CCN=[N+]=[N-])NC(=O)[C@H](CCCCN)NC(=O)[C@H](C)NC(=O)[C@H](C)NC(=O)[C@H](CCC(N)=O)NC(=O)CNC(=O)[C@H](CCC(=O)O)NC(=O)[C@H](CCN=[N+]=[N-])NC(=O)[C@H](Cc1ccc(O)cc1)NC(=O)[C@H](CO)NC(=O)[C@H](CO)NC(=O)[C@@H](NC(=O)[C@H](CC(=O)O)NC(=O)[C@H](CO)NC(=O)[C@@H](NC(=O)[C@H](Cc1ccccc1)NC(=O)[C@@H](NC(=O)CNC(=O)[C@H](CCC(=O)O)NC(=O)[C@H](C)NC(=O)[C@@H](N)Cc1c[nH]cn1)[C@@H](C)O)[C@@H](C)O)C(C)C)C(=O)N[C@@H](C)C(=O)N[C@@H](Cc1c[nH]c2ccccc12)C(=O)N[C@@H](CC(C)C)C(=O)N[C@H](C(=O)N[C@@H](CCCCN)C(=O)NCC(=O)N[C@@H](CCCNC(=N)N)C(N)=O)C(C)C [double mutant GLP-1] (H-HAEGTFTSDVSSY[Aha]EGQAAK[Aha]FIAWLVKGR-NH2)
- Kd (GLP-1R): 5.6 nM
- aggregation [1]: no aggregation was detected at lower concentrations
- half-life slower than wild-type GLP-1 (trypsin): 1 to 2 orders of magnitude
